Data: article PMC3108608 (Frontiers in Pharmacology, 2011)
Values belong to the compound of their own block, whether it stands above or below them.

Experiments:
[1] = system: COX-2 expression; assay: Induction of COX-2 in IL-1β-stimulated A549 cells (Western blot); type: cell-based; details: Homo sapiens, 24 h, read-out: EC50 of inhibition of COX-2 induction
Method: (§1) Cells (4 × 10^6 cells) were resuspended in 50 μl PBS buffer pH 7.2, mixed with the same volume of 2 × SDS/PAGE sample loading buffer (20 mM Tris–HCl, pH 8, 2 mM EDTA, 5% (m v^−1) SDS, and 10% (v v^−1) β-mercaptoethanol), and boiled for 5 min at 95°C. Aliquots (20 μl) corresponding to equivalents of 0.8 × 10^6 cells were mixed with 4 μl glycerol/0.1% bromophenol blue (1:1, v v^−1), and proteins were separated by SDS-PAGE. After electroblotting to nitrocellulose membrane (GE Healthcare, Munich, Germany) and blocking with 5% BSA for 1 h at room temperature, membranes were washed and incubated with primary antibodies overnight at 4°C. The membranes were washed and incubated with a 1:1000 dilution of alkaline phosphatase-conjugated immunoglobulin G for 3 h at room temperature. After washing, proteins were visualized with nitro blue tetrazolium and 5-bromo-4-chloro-3-indolylphosphate.
(§2) Cells were harvested after 24 h, total cell lysates were prepared and analyzed for the induction of COX-2 (72 kDa), mPGES-1 (16 kDa) and cleaved PARP (89 kDa) using SDS-PAGE and Western blotting. β-Actin (45 kDa) was used as loading control. Data are representatives of two to three independent experiments.

[2] = system: mPGES-1 expression; assay: Induction of mPGES-1 in IL-1β-stimulated A549 cells (Western blot); type: cell-based; details: Homo sapiens, 24 h, read-out: EC50 of inhibition of mPGES-1 induction
Method: as §1, §2

[3] = system: A549 lung carcinoma cells; assay: Apoptosis of A549 cells monitored by cleavage of PARP; type: cell-based; details: Homo sapiens, A549, 24 h
Method: as §1, §2

[4] = system: carrageenan-induced mouse paw edema; assay: Carrageenan-induced paw edema in mice; type: in vivo; details: for ED50 paw edema formation: i.p., areas under the curves 2-6 h
Method: Mice were divided into groups (n = 10 for each group) and lightly anesthetized with enflurane 4% mixed with O2, 0.5 l min^−1, N2O 0.5 l min^−1. Each group of animals received subplantar administration of saline (0.05 ml) or of λ-carrageenan type IV 1% (w v^−1, 0.05 ml) in saline. The paw was marked in order to immerge it always at the same extent in the measurement chamber. The volume was measured by using a hydroplethismometer, specially modified for small volumes (Ugo Basile, Milan, Italy), immediately before subplantar injection and 2, 4, and 6 h thereafter (Posadas et al., [2004]). The assessment of paw volume was performed always in double blind and by the same operator. The increase in paw volume was calculated by subtracting the initial paw volume (basal) to the paw volume measured at each time point.

[5] = system: carrageenan-induced pleurisy; assay: Carrageenan-induced pleurisy in rats; type: in vivo, rat; details: 4 h after carrageenan; for PGE2 in exudate: vehicle 1.81 ± 0.16; for Inflammatory cells: vehicle 103.0 ± 15.4
[6] = system: A549 cells; assay: cells; details: Homo sapiens, A549, 24 h, read-out: EC50 of reduction of cell viability
[7] = molecular target: 5-lipoxygenase (5-LO); parameters: method as in Albert et al., 2002; Feisst et al., 2009; details: neutrophils; ref Albert et al., 2002; Feisst et al., 2009; read-out: IC50 of leukotriene biosynthesis; cited from earlier work
[8] = system: COX-1; parameters: method as in Albert et al., 2002; Feisst et al., 2009; details: human platelets; ref Albert et al., 2002; Feisst et al., 2009; cited from earlier work
[9] = system: COX-2; parameters: method as in Albert et al., 2002; Feisst et al., 2009; details: monocytic Mono Mac 6 cells; ref Albert et al., 2002; Feisst et al., 2009; read-out: COX-2 activity (6-keto PGF1α synthesis), not affected up to; cited from earlier work
[10] = system: PGE2 formation in LPS-stimulated human whole blood; assay: PGE2 formation in LPS-stimulated human whole blood; type: cell-based; details: controls: MK-886 30 μM, MD-52 6 μM, indomethacin 50 μM, celecoxib 20 μM; LPS 5 h
[11] = system: 6-keto PGF1α formation in LPS-stimulated human whole blood; assay: 6-keto PGF1α formation in LPS-stimulated human whole blood; type: cell-based; details: MK-886 30 μM, MD-52 6 μM; LPS 5 h
[12] = system: TXB2 formation in LPS-stimulated human whole blood; assay: TXB2 formation in LPS-stimulated human whole blood; type: cell-based; details: MK-886 30 μM, MD-52 6 μM; LPS 5 h
[13] = molecular target: T1, mPGES-1 (Homo sapiens, UniProt O14684); assay: PGE2 synthase activity in microsomes of IL-1β-stimulated A549 cells; type: biochemical; details: for IC50: 15 min pre-incubation at 4°C, 20 μM PGH2, 1 min, read-out: IC50 of PGE2 formation (mPGES-1 activity)
T1 construct: microsomal preparations of IL-1β-stimulated A549 cells, a rich source of mPGES-1; endogenous in cells; host or cells: A549 cells, IL-1β-stimulated, microsomal fraction
T1 sequence (O14684 1-152): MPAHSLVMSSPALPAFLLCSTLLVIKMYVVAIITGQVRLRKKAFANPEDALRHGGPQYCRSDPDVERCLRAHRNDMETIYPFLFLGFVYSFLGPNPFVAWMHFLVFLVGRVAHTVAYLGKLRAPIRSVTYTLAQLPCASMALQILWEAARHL

[14] = system: 12-HHT formation (mainly derived from platelet COX-1) in human whole blood; assay: 12-HHT formation in human whole blood (A23187 plus AA); type: cell-based; details: indomethacin 20 μM, aspirin 30 μM
[15] = Hyp 4 mg kg^−1 i.p., indomethacin 5 mg kg^−1
[16] = i.p. 30 min before, Hyperforin 4 mg kg^−1, Indomethacin 5 mg kg^−1

Compound: CC(C)=CCCC1(C)C(CC=C(C)C)CC2(CC=C(C)C)C(=O)C1(C(=O)C(C)C)C(=O)C(CC=C(C)C)=C2O (centres unmarked) [Hyp, Hyperforin]
EC50 [1]: 1000 to 3000 nM
EC50 [2]: 1000 to 3000 nM
EC50 [3]: ~3000 nM
inhibition of edema formation from areas under the curves (2-6 h) ([4]; 0.25 mg kg^−1 i.p.): 27 % of control
reduction of peak paw edema response at 4 h ([4]; 0.25 mg kg^−1 i.p. 30 min before carrageenan): 35%
inhibition of edema formation from areas under the curves (2-6 h) ([4]; 1 mg kg^−1 i.p.): 49 % of control
reduction of peak paw edema response at 4 h ([4]; 1 mg kg^−1 i.p. 30 min before carrageenan): 63%
inhibition of edema formation from areas under the curves (2-6 h) ([4]; 4 mg kg^−1 i.p.): 76 % of control
reduction of peak paw edema response at 4 h ([4]; 4 mg kg^−1 i.p. 30 min before carrageenan): 78%
ED50 paw edema formation [4]: 1 mg/kg
attenuation of exudate formation [5, 15]: 64%
PGE2 in exudate [5, 16]: 0.97 ± 0.15 ng/rat
Inflammatory cells [5, 16]: 51.3 ± 7.2 ×10^6
EC50 [6]: ~3000 nM
IC50 [7]: 1000 to 2000 nM
IC50 [8]: 3000 nM
IC50 [9]: > 30000 nM

Compound: Clc1ccccc1-c1nc2c3ccccc3c3ccccc3c2[nH]1 [MD-52, 2-(2-chlorophenyl)-1H-phenanthro[9,10-d]-imidazole]
effect on PGE2 formation [10]: only partially inhibited
effect on 6-keto PGF1α formation [11]: failed to suppress
effect on TXB2 formation [12]: failed to suppress

Compound: CC(C)c1ccc2c(c1)c(SC(C)(C)C)c(CC(C)(C)C(=O)O)n2Cc1ccc(Cl)cc1 [MK-886]
effect on PGE2 formation [10]: only partially inhibited
effect on 6-keto PGF1α formation [11]: failed to suppress
effect on TXB2 formation [12]: failed to suppress

IC50 [13]: > 10000 nM
Compound: Cc1c(O)cc(O)c(C(=O)C(C)C)c1O [acylphloroglucinol core]

Compound: CC(=O)Oc1ccccc1C(=O)O [aspirin]
effect on 12-HHT formation [14]: almost completely blocked

Compound: Cc1ccc(-c2cc(C(F)(F)F)nn2-c2ccc(S(N)(=O)=O)cc2)cc1 [celecoxib]
effect on PGE2 formation [10]: effectively reduced

IC50 [13]: > 10000 nM
Compound: CC(C)=CCC1C(=O)C(C(=O)CC(C)C)=C(O)C(O)(CC=C(C)C)C1=O (centres unmarked) [humulone]

Compound: COc1ccc2c(c1)c(CC(=O)O)c(C)n2C(=O)c1ccc(Cl)cc1 [indomethacin]
effect on PGE2 formation [10]: effectively reduced
effect on 12-HHT formation [14]: almost completely blocked
inhibition of edema formation from areas under the curves (2-6 h) ([4]; 5 mg kg^−1 i.p.): 52 % of control
reduction of peak paw edema response at 4 h ([4]; 5 mg kg^−1 i.p. 30 min before carrageenan): 57%
ED50 paw edema formation [4]: 5 mg/kg
attenuation of cell infiltration [5, 15]: 65%
attenuation of exudate formation [5, 15]: 75%
Exudate volume ([5]; i.p. 30 min before, Hyperforin 4 mg kg^−1, Indomethacin 5 mg kg^−1, vehicle 0.44 ± 0.04): 0.11 ± 0.04 mL
PGE2 in exudate [5, 16]: 0.19 ± 0.05 ng/rat
Inflammatory cells [5, 16]: 35.8 ± 4.2 ×10^6

Compound: CC(C)CCC[C@]1(C)[C@@H](CCC(C)C)C[C@@]2(CCC(C)C)C(=O)[C@]1(C(=O)C(C)C)C(=O)C(CCC(C)C)=C2O [octahydro-hyperforin]
mPGES-1 inhibition compared with Hyp ([13]; 20 μM PGH2): equally effective
